In patent US20240285634A1, “COMPOUND AND METHOD FOR TREATING CHEMOTHERAPY-ASSOCIATED GASTROINTESTINAL SIDE EFFECTS” (ONQUALITY PHARMACEUTICALS CHINA LTD., priority 2021, published 2024):

Key:
[1] = system: Chemotherapeutic agent-caused constipation models of Balb/c mice; assay: Relieving effect on constipation caused by a chemotherapeutic agent (Examples 202-364); assay type: in vivo
Source text: Construction of mouse animal models: Chemotherapeutic agent-caused constipation models of Balb/c mice were constructed according to the administration mode and frequency of the chemotherapeutic agent as shown in Table 4. […] Thus, chemotherapeutic agent-caused constipation models of mice are very good models to mimic constipation caused by the chemotherapeutic agent.
Balb/c mice were fed for 1 week, and then divided into groups. The experiment was divided into a control group, a chemotherapeutic agent group, and a group of the compound as shown in Formula I, each of which comprised 10 mice, to perform the administration experiment, for which the administration dosage, mode, time and frequency were shown in Table 4. The control group: being injected or intragastrically administered with the same solvent as that used in the group of the compound as shown in Formula I (the administration mode and time were shown in Table 4), and then being injected or intragastrically administered with the same solvent as that used in the chemotherapeutic agent group (the administration mode was shown in Table 4); the chemotherapeutic agent group: being injected or intragastrically administered with the same solvent as that used in the group of the compound as shown in Formula I (the administration mode and time was shown in Table 4), and then being injected or intragastrically administered with the chemotherapeutic agent (the type, administration mode and dosage were shown in Table 4); the group of the compound as shown in Formula I: being injected or intragastrically administered with the compound as shown in Formula I (the administration mode and time was shown in Table 4), and then being administered with the chemotherapeutic agent (the administration mode and dosage were shown in Table 4).
The feces reduction rate was calculated with reference to the method of Ji Eun Kim (Lab Anim Res. 2016 December; 32(4): 231-240.). Feces reduction rate (%)=(the control group−the chemotherapeutic agent group or the group of the compound as shown in Formula I)/the control group*100%
It is regarded as effective remission when the feces reduction rate of mice in the group of the compound as shown in Formula I is reduced compared with that in the chemotherapeutic agent group.
The feces amount of mice within 3 hours was observed and recorded every day. At the end of the experiment, the number of mice in the group of the compound as shown in Formula I whose feces reduction rate was lower than that of mice in the chemotherapeutic agent group was recorded. Table 4 lists various animal experiment combinations of chemotherapeutic agents and the compound as shown in Formula I, as well as the corresponding experimental results.

[2] = system: Balb/c mice, diarrhea caused by continuous administration of a chemotherapeutic agent; assay: Relieving effect on diarrhea caused by the continuous administration of a chemotherapeutic agent (Examples 365-384); assay type: in vivo
Source text: Balb/c mice were fed for 1 week, and then divided into groups. The experiment was divided into a control group, a chemotherapeutic agent group, and a group of the compound as shown in Formula I, each of which comprised 10 mice, to perform the administration experiment, for which the administration dosage, mode, time and frequency were shown in Table 5. The control group: being injected or intragastrically administered with the same solvent as that used in the group of the compound as shown in Formula I (the administration mode and time were shown in Table 5), and then being injected or intragastrically administered with the same solvent as that used in the chemotherapeutic agent group (the administration mode was shown in Table 5); the chemotherapeutic agent group: being injected or intragastrically administered with the same solvent as that used in the group of the compound as shown in Formula I (the administration mode and time were shown in Table 5), and then being injected or intragastrically administered with the chemotherapeutic agent (the type, administration mode, time and dosage were shown in Table 5); the group of the compound as shown in Formula I: being injected or intragastrically administered with the compound as shown in Formula I (the administration mode and time were shown in Table 5), and then being administered with the chemotherapeutic agent (the type, administration mode, time and dosage were shown in Table 5).
The scoring of diarrhea can refer to the method of Akinobu Kurita (Cancer Chemother Pharmacol 2000; 46:211-20.), Grade 0): normal feces; Grade 1: mild diarrhea, the stools is slightly wet and soft; Grade 2: moderate diarrhea, loose stools and mild perianal contamination; Grade 3: severe diarrhea, watery stools and accompanied by severe perianal staining (see FIG. 1). It is regarded as effective remission when the diarrhea grading of mice in the group of the compound as shown in Formula I is reduced compared with the average diarrhea grading of mice in the chemotherapeutic agent group.
The diarrhea grading of mice was observed and recorded every day. At the end of the experiment, the number of mice in the group of the compound as shown in Formula I whose diarrhea grading was lower than that of mice in the chemotherapeutic agent group was recorded. Table 5 lists various animal experiment combinations of chemotherapeutic agents and the compound as shown in Formula I, as well as the corresponding experimental results. (Relative remission rate %=the number of mice in the group of the compound as shown in Formula I whose diarrhea has been effectively relieved/the total number of mice in the group of the compound as shown in Formula I*100%. The establishment rate of diarrhea model in the chemotherapeutic agent group was 50%-80%, that is, about 5-8 of 10 mice developed diarrhea during the experiment, and there were cases of individual mice death or not developing diarrhea.)

Q: Which results are given for `CN1CCN(c2ccc(Nc3ncc4cc5n(c4n3)C3(CCCCC3)CNC5=O)nc2)CC1` [Compound I, Trilaciclib]?
A: Relative remission rate (%) ([1]; Example 335, Fluorouracil 100 (F), oxaliplatin 5 (O), irinotecan 100 (I) and tetrahydrofolic acid 100 (L) mg/kg intravenous injection single, compound intravenous injection 100 mg/kg single, 10 h before chemotherapeutic agent, cycle 8 days): 60%; Relative remission rate (%) ([1]; Example 336, Fluorouracil 100 (F), oxaliplatin 5 (O), irinotecan 100 (I) and tetrahydrofolic acid 100 (L) mg/kg intravenous injection single, compound intravenous injection 100 mg/kg single, 12 h before chemotherapeutic agent, cycle 8 days): 60%; Relative remission rate (%) ([1]; Example 337, Fluorouracil 100 (F), oxaliplatin 5 (O), irinotecan 100 (I) and tetrahydrofolic acid 100 (L) mg/kg intravenous injection single, compound intravenous injection 100 mg/kg single, 14 h before chemotherapeutic agent, cycle 8 days): 40%; Relative remission rate (%) ([1]; Example 338, Fluorouracil 100 (F), oxaliplatin 5 (O), irinotecan 100 (I) and tetrahydrofolic acid 100 (L) mg/kg intravenous injection single, compound intravenous injection 100 mg/kg single, 16 h before chemotherapeutic agent, cycle 8 days): 40%; Relative remission rate (%) ([1]; Example 339, Fluorouracil 100 (F), oxaliplatin 5 (O), irinotecan 100 (I) and tetrahydrofolic acid 100 (L) mg/kg intravenous injection single, compound intravenous injection 100 mg/kg single, 18 h before chemotherapeutic agent, cycle 8 days): 40%; Relative remission rate (%) ([1]; Example 340, Fluorouracil 100 (F), oxaliplatin 5 (O), irinotecan 100 (I) and tetrahydrofolic acid 100 (L) mg/kg intravenous injection single, compound intravenous injection 100 mg/kg single, 20 h before chemotherapeutic agent, cycle 8 days): 30%; Relative remission rate (%) ([1]; Example 341, Fluorouracil 100 (F), oxaliplatin 5 (O), irinotecan 100 (I) and tetrahydrofolic acid 100 (L) mg/kg intravenous injection single, compound intravenous injection 100 mg/kg single, 24 h before chemotherapeutic agent, cycle 8 days): 30%; Relative remission rate (%) ([1]; Example 342, Fluorouracil 100 (F), oxaliplatin 5 (O), irinotecan 100 (I) and tetrahydrofolic acid 100 (L) mg/kg intravenous injection single, compound intravenous injection 100 mg/kg single, 48 h before chemotherapeutic agent, cycle 8 days): 0%; Relative remission rate (%) ([1]; Example 345, Fluorouracil 100 (F), oxaliplatin 5 (O), irinotecan 100 (I) and tetrahydrofolic acid 100 (L) mg/kg intraperitoneal injection single, compound oral administration 100 mg/kg single, 6 h before chemotherapeutic agent, cycle 7 days): 60%; Relative remission rate (%) ([1]; Example 346, Fluorouracil 100 (F), oxaliplatin 5 (O), irinotecan 100 (I) and tetrahydrofolic acid 100 (L) mg/kg intraperitoneal injection single, compound oral administration 100 mg/kg single, 24 h before chemotherapeutic agent, cycle 7 days): 40%; Relative remission rate (%) ([1]; Example 355, Fluorouracil 100 (F), oxaliplatin 5 (O), irinotecan 200 (I) and tetrahydrofolic acid 100 (L) mg/kg oral administration single, compound subcutaneous injection 100 mg/kg single, 0.5 h before chemotherapeutic agent, cycle 7 days): 50%; Relative remission rate (%) ([1]; Example 356, Fluorouracil 100 (F), oxaliplatin 5 (O), irinotecan 200 (I) and tetrahydrofolic acid 100 (L) mg/kg oral administration single, compound subcutaneous injection 100 mg/kg single, 4 h before chemotherapeutic agent, cycle 7 days): 50%; Relative remission rate (%) ([1]; Example 360, Gemcitabine (GEM) intravenous injection 120 mg/kg single, compound oral administration 100 mg/kg single, 24 h before chemotherapeutic agent, cycle 8 days): 30%; feces reduction rates compared with the chemotherapeutic agent group ([1]; administered before the chemotherapeutic agent, Table 4 and FIG. 4): reduced to different degrees; Relative remission rate (%) ([2]; Example 365, Fluorouracil (5-Fu) intraperitoneal injection 70 mg/kg once a day, for 3 days, compound intravenous injection 100 mg/kg once a day, for 3 days, 2 h before chemotherapeutic agent, cycle 10 days): 60%; Relative remission rate (%) ([2]; Example 366, Fluorouracil (5-Fu) intraperitoneal injection 70 mg/kg once a day, for 3 days, compound intravenous injection 100 mg/kg once a day, for 3 days, 4 h before chemotherapeutic agent, cycle 10 days): 40%; Relative remission rate (%) ([2]; Example 367, Fluorouracil (5-Fu) intraperitoneal injection 70 mg/kg once a day, for 3 days, compound intravenous injection 100 mg/kg once a day, for 3 days, 6 h before chemotherapeutic agent, cycle 10 days): 30%; Relative remission rate (%) ([2]; Example 368, Fluorouracil (5-Fu) intraperitoneal injection 70 mg/kg once a day, for 3 days, compound intravenous injection 100 mg/kg once a day, for 3 days, 8 h before chemotherapeutic agent, cycle 10 days): 20%; Relative remission rate (%) ([2]; Example 369, Fluorouracil (5-Fu) intraperitoneal injection 70 mg/kg once a day, for 5 days, compound intraperitoneal injection 100 mg/kg once a day, for 5 days, 2 h before chemotherapeutic agent, cycle 9 days): 50%; Relative remission rate (%) ([2]; Example 370, Fluorouracil (5-Fu) intraperitoneal injection 70 mg/kg once a day, for 5 days, compound intraperitoneal injection 100 mg/kg once a day, for 5 days, 4 h before chemotherapeutic agent, cycle 9 days): 30%; Relative remission rate (%) ([2]; Example 371, Fluorouracil (5-Fu) intraperitoneal injection 70 mg/kg once a day, for 5 days, compound intraperitoneal injection 100 mg/kg once a day, for 5 days, 6 h before chemotherapeutic agent, cycle 9 days): 20%; Relative remission rate (%) ([2]; Example 372, Fluorouracil (5-Fu) intraperitoneal injection 70 mg/kg once a day, for 5 days, compound intraperitoneal injection 100 mg/kg once a day, for 5 days, 8 h before chemotherapeutic agent, cycle 9 days): 10%; Relative remission rate (%) ([2]; Example 376, Fluorouracil (5-Fu) intraperitoneal injection 70 mg/kg once a day, for 7 days, compound intraperitoneal injection 125 mg/kg once a day, for 7 days, 2 h before chemotherapeutic agent, cycle 10 days): 10%; Relative remission rate (%) ([2]; Example 383, Fluorouracil (5-Fu) intravenous injection 70 mg/kg once a day for 3 days, compound oral administration 100 mg/kg once a day, for 3 days, 6 h before chemotherapeutic agent, cycle 8 days): 50%; Relative remission rate (%) ([2]; Example 384, Fluorouracil (5-Fu) oral administration 50 mg/kg once a day, for 14 days, compound intraperitoneal injection 100 mg/kg once a day, for 14 days, 8 h before chemotherapeutic agent, cycle 14 days): Ineffective; relieving effect on diarrhea ([2]; continuous administration of fluorouracil for 14 days): ineffective; relieving effects on diarrhea ([2]; continuous administration of the chemotherapeutic agent for 7 days or less): have relieving effects; relieving effects on diarrhea ([2]; continuous administration of the chemotherapeutic agent for less than 7 days): significant
